PubChem BioAssay (NCI)
Where “and” joins values, the source holds several entries; their conditions need not be identical. Equal entries are not always repeated.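 48-hour exposure; five concentrations; linearly interpolated endpoints. Here, GI50 denotes the concentration required for 50% inhibition of growth. TGI denotes the concentration required for complete inhibition of growth.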

How the values were obtained:
Experiment in all cases: inhibition of tumour cell growth, NCI panel, 48 h
CAKI-1 renal = system: CAKI-1 renal
OVCAR-3 ovarian = system: OVCAR-3 ovarian
SK-MEL-5 melanoma = system: SK-MEL-5 melanoma
HCT-15 colon = system: HCT-15 colon
NCI-H460 lung = system: NCI-H460 lung
HS 578T breast = system: HS 578T breast
A549 NSCLC = system: A549 NSCLC
SW-620 colon = system: SW-620 colon
COLO 205 colon = system: COLO 205 colon
MDA-MB-231 breast = system: MDA-MB-231 breast

Row | Structure (SMILES) | GI50 (CAKI-1 renal) | TGI (CAKI-1 renal) | GI50 (OVCAR-3 ovarian) | TGI (OVCAR-3 ovarian) | GI50 (SK-MEL-5 melanoma) | TGI (SK-MEL-5 melanoma) | GI50 (HCT-15 colon) | TGI (HCT-15 colon) | GI50 (NCI-H460 lung) | TGI (NCI-H460 lung) | GI50 (HS 578T breast) | TGI (HS 578T breast) | GI50 (A549 NSCLC) | GI50 (SW-620 colon) | TGI (SW-620 colon) | GI50 (COLO 205 colon) | TGI (COLO 205 colon) | GI50 (MDA-MB-231 breast) | TGI (MDA-MB-231 breast) | TGI (A549 NSCLC)
1 | Clc1ccc(-c2cn(-c3ccccc3)c(-c3ccccc3)n2)c(Cl)c1 | 1.2 µM | 4.4 µM | 0.861 µM | 1.73 µM | 48.5 µM | > 50 µM | 2.91 µM | > 50 µM | 1.09 µM | 2.39 µM | 1.27 µM | 6.02 µM | 1.77 µM | 1.01 µM | 2.07 µM | 1.14 µM | 3.03 µM | 23 µM | > 50 µM | –
2 | CC(C)[C@@H](CS(=O)(=O)C(C)C)N1C(=O)[C@@](C)(CC(=O)O)C[C@H](c2cccc(Cl)c2)[C@H]1c1ccc(Cl)cc1 | 0.378 µM | 32.8 µM | 12.4 µM | 33 µM | 1.96 µM | 17.2 µM | 15.3 µM | > 69.3 µM | 0.388 µM | 15.1 µM | 17.1 µM | 72.1 µM | 0.464 µM | 25.5 µM | > 100 µM | 14.7 µM | 34.4 µM | 18.3 µM | 39.2 µM | 19.8 µM
3 | C=C1C(=O)O[C@H]2[C@H]1CC(=O)/C(C)=C\CC[C@@]1(C)O[C@@H]21 | 1.19 µg/mL | 3.45 µg/mL | 0.795 µg/mL | 3.71 µg/mL | 2.99 µg/mL | 8.73 µg/mL | 0.83 µg/mL | 3.68 µg/mL | 3.83 µg/mL | 8.08 µg/mL | 4.43 µg/mL | 9.16 µg/mL | 5.21 µg/mL | 1.06 µg/mL | 6.15 µg/mL | 0.755 µg/mL | 3.54 µg/mL | 4.58 µg/mL | 8.82 µg/mL | 11.3 µg/mL
4 | COc1cc2c3c(n(C)c(=O)c2cc1OC)-c1cc2c(cc1/C3=C\[C@@H](N)CCCCN)OCO2 | 4.26 µM | > 75.1 µM | 3.83 µM | 58.9 µM | – | – | 60.3 µM | > 100 µM | 0.707 µM | > 82.9 µM | 15.9 µM | 81.8 µM | 0.381 µM | 1.57 µM | > 100 µM | 2.8 µM | > 86.3 µM | 1.54 µM | > 48.5 µM | –
5 | CC(=O)OC1=C2C(CC3C4CC=C5CC(OC(C)=O)CCC5(C)C4CCC23C)C2C(=O)N(Cc3ccccc3)C(=O)C2C1 (centres undefined) | 4.65 µM | > 100 µM | 3.31 µM | 12 µM | 2.1 µM | 4.79 µM | 3.09 µM | > 100 µM | 3.73 µM | 31.1 µM | 15.7 µM | > 100 µM | 4.33 µM | 12.2 µM | > 100 µM | 8.12 µM | 25 µM | 11.1 µM | 72.7 µM | 34 µM
6 | COc1cccc(C2C(C#N)=C(N)Oc3cc(OC)ccc32)c1 (centres undefined) | 0.0493 µM | > 100 µM | 0.0244 µM | 1.18 µM | 0.0455 µM | 1.69 µM | 0.0366 µM | > 100 µM | 0.0353 µM | 3.64 µM | 0.0279 µM | 10.3 µM | 0.0496 µM | 0.035 µM | > 100 µM | 0.0464 µM | 0.529 µM | 0.0519 µM | 1.49 µM | > 100 µM
7 | CN1c2ccccc2C(C)(C)C12CC(c1ccc(Cl)c(S(=O)(=O)N3CCCC3)c1)=NO2 (centres undefined) | – | – | > 100 µM | > 100 µM | 0.456 µM | > 100 µM | 0.118 µM | > 100 µM | 0.375 µM | > 100 µM | > 100 µM | > 100 µM | > 100 µM | – | – | > 100 µM | > 100 µM | > 100 µM | > 100 µM | > 100 µM
8 | COc1ccc(Cn2cc(Cn3c(=O)c(-c4nc5ccccc5[nH]4)cc4ccccc43)nn2)c(OC)c1OC | 0.35 µM and 0.396 µM | 1.47 µM and 3.92 µM | 0.165 µM and 0.292 µM | 0.633 µM and 1.19 µM | 0.307 µM and 0.274 µM | 1.04 µM and 1.45 µM | 0.378 µM | > 100 µM | 0.18 µM | 0.893 µM | 0.0778 µM and 0.168 µM | – | 0.213 µM and 0.477 µM | 0.223 µM and 0.293 µM | 50 µM and > 100 µM | – | – | 0.292 µM and 0.451 µM | 1.54 µM and 3.07 µM | –
9 | C=C1C(=O)O[C@H]2[C@H]1CC/C(COC(=O)C(=O)c1cn(C)c3ccc(OC)cc13)=C\CC[C@@]1(C)O[C@@H]21 | 7.25 µM | 21.8 µM | 1.86 µM | 3.42 µM | 4.03 µM | 7.56 µM | 1.75 µM | 3.23 µM | 7.2 µM | 14.4 µM | 11.3 µM | 50.4 µM | 7.61 µM | 3.53 µM | 14.5 µM | – | – | 4.39 µM | 10.6 µM | 14.2 µM
10 | CCCCC#Cc1cccc(=O)o1 | > 100 µM | > 100 µM | 5.23 µM | > 100 µM | 3.71 µM | 26.6 µM | – | – | 36.2 µM | > 100 µM | > 100 µM | > 100 µM | 45.6 µM | 22.5 µM | > 100 µM | 2.23 µM | 5.3 µM | 6.43 µM | > 100 µM | > 100 µM
